Laboratory results as given in ChEMBL document CHEMBL5291721, “A preclinical secondary pharmacology resource illuminates target-adverse drug reaction associations of marketed drugs” (Nat Commun, 2023).

Legend:
[1] = target: Beta-1 adrenergic receptor (Homo sapiens, UniProt P08588); type: functional, cell-based
[2] = target: T1, Type-2 angiotensin II receptor (Homo sapiens, UniProt P50052); type: functional
T1 sequence (P50052 whole entry): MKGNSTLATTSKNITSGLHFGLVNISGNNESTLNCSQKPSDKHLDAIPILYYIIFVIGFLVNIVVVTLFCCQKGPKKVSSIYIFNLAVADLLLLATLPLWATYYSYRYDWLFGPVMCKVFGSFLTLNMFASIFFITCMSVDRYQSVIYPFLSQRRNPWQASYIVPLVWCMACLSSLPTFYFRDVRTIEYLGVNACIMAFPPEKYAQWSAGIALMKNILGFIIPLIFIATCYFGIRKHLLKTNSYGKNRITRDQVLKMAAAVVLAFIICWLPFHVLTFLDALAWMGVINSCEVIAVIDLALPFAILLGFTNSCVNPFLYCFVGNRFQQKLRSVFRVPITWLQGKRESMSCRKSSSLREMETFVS

Histamine H1 receptor = Histamine H1 receptor (Homo sapiens, UniProt P35367); type: functional, cell-based
Chain of Histamine H1 receptor (P35367 whole entry): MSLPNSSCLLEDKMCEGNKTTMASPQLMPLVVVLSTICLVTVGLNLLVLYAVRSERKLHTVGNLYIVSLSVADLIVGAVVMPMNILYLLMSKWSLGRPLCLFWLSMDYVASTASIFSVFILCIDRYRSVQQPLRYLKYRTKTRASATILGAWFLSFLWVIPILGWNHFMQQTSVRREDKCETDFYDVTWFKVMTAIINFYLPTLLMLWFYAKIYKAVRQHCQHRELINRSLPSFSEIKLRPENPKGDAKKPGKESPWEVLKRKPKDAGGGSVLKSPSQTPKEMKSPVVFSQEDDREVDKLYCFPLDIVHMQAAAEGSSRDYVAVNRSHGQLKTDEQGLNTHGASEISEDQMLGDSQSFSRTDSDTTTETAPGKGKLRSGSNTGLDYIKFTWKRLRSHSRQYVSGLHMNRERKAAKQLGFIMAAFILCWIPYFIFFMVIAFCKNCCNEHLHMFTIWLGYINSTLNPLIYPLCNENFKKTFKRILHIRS

[3] = target: Gamma-aminobutyric acid receptor subunit alpha-1/alpha-2/beta-2/gamma-2 (Homo sapiens, UniProt P14867+P18507+P47869+P47870); type: functional, cell-based
Chain of Gamma-aminobutyric acid receptor subunit alpha-1/alpha-2/beta-2/gamma-2 (P14867 whole entry): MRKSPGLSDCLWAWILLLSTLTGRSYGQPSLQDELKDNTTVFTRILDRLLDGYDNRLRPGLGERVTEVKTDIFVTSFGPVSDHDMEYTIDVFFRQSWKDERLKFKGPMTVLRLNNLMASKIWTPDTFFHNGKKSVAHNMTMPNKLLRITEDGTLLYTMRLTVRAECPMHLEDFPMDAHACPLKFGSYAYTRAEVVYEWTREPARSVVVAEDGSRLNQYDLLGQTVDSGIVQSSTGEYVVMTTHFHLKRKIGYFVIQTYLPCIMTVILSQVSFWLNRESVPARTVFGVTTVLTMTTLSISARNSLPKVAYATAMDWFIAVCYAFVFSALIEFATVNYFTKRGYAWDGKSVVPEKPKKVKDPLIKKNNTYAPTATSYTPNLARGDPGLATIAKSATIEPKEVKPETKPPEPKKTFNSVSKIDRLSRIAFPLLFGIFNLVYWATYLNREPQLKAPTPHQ
Chain of Gamma-aminobutyric acid receptor subunit alpha-1/alpha-2/beta-2/gamma-2 (P47870 whole entry): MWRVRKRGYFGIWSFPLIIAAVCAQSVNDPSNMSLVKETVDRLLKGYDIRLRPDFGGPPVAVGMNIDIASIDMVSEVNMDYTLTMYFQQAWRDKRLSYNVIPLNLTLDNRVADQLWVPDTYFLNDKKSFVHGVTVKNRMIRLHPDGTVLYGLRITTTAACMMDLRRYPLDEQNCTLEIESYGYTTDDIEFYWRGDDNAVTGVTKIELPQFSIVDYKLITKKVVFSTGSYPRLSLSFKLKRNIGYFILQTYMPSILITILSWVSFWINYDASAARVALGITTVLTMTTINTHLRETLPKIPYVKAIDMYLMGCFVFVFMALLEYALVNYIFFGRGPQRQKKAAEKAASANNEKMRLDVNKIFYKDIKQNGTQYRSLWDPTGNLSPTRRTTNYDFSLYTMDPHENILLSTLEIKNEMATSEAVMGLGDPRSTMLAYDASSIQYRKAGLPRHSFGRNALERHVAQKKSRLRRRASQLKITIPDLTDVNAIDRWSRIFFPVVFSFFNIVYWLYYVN
Chain of Gamma-aminobutyric acid receptor subunit alpha-1/alpha-2/beta-2/gamma-2 (P18507 whole entry): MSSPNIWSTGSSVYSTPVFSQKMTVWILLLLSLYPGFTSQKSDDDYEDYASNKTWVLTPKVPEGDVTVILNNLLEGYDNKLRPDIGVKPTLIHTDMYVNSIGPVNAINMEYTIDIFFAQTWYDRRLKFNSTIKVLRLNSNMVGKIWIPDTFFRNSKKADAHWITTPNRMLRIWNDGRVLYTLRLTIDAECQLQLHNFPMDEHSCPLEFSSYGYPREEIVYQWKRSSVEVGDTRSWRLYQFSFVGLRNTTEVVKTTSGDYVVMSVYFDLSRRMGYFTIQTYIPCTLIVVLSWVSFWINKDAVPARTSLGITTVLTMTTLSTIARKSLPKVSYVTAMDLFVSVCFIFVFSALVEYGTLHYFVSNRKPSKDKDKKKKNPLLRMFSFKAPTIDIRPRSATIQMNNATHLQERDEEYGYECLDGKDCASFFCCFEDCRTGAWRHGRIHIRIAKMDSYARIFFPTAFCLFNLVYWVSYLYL
Chain of Gamma-aminobutyric acid receptor subunit alpha-1/alpha-2/beta-2/gamma-2 (P47869 whole entry): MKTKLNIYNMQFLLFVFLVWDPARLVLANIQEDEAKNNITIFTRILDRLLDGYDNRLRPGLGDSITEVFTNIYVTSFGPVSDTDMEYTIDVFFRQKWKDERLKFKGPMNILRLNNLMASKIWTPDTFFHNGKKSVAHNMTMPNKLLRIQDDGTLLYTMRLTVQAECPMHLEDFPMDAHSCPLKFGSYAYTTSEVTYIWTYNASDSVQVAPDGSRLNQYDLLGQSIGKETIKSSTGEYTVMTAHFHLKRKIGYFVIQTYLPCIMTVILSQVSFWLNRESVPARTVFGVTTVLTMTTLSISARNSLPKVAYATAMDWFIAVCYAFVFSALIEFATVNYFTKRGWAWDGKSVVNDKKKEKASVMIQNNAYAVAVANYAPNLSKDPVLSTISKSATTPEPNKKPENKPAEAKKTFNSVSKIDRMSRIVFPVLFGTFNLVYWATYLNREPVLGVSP

[4] = target: T2, Peroxisome proliferator-activated receptor gamma (Homo sapiens, UniProt P37231); type: functional
T2 sequence (P37231 whole entry): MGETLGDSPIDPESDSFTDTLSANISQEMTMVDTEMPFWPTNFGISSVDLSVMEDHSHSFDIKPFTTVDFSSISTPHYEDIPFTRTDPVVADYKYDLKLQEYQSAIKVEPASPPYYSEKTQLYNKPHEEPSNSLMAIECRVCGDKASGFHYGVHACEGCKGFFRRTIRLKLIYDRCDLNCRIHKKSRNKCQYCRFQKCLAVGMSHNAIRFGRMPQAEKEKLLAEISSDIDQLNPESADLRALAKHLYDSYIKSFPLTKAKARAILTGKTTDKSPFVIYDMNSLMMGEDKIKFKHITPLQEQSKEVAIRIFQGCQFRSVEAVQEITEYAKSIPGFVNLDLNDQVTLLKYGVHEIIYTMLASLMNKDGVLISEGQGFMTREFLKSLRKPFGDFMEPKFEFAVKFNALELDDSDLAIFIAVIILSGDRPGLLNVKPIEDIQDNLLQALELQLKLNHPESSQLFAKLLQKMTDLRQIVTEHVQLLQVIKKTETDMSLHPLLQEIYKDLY

Cannabinoid receptor 1 = Cannabinoid receptor 1 (Homo sapiens, UniProt P21554); type: functional
Chain of Cannabinoid receptor 1 (P21554 whole entry): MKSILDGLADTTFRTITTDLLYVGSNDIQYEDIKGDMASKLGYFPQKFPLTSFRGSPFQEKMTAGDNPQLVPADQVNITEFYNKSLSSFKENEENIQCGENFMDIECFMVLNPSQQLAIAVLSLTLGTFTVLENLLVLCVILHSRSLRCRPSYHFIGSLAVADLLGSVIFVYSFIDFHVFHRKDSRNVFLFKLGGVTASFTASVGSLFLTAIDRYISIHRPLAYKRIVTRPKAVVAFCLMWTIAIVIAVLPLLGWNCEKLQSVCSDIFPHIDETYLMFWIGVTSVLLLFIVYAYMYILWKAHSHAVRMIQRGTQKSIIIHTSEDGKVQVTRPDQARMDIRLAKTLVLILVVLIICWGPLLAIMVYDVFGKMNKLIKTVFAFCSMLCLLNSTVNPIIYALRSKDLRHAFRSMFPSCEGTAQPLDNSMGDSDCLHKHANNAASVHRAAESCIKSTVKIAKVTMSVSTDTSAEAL

[5] = target: T3, Muscarinic acetylcholine receptor M5 (Homo sapiens, UniProt P08912)
T3 sequence (P08912 whole entry): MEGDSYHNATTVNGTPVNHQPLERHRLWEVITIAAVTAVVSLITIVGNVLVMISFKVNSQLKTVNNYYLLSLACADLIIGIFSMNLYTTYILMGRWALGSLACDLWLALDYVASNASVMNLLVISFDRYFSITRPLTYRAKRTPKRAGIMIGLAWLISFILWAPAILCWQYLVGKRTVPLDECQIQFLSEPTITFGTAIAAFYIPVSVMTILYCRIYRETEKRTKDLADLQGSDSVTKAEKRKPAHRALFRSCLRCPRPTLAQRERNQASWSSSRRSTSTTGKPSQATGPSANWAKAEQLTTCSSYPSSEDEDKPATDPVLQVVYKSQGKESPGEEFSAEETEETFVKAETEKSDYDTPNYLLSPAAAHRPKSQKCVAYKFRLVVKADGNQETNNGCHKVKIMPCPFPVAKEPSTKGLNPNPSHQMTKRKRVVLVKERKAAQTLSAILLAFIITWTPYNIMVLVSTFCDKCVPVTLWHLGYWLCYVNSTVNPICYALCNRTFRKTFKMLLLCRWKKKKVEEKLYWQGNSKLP

D(1A) dopamine receptor = D(1A) dopamine receptor (Homo sapiens, UniProt P21728)
Chain of D(1A) dopamine receptor (P21728 whole entry): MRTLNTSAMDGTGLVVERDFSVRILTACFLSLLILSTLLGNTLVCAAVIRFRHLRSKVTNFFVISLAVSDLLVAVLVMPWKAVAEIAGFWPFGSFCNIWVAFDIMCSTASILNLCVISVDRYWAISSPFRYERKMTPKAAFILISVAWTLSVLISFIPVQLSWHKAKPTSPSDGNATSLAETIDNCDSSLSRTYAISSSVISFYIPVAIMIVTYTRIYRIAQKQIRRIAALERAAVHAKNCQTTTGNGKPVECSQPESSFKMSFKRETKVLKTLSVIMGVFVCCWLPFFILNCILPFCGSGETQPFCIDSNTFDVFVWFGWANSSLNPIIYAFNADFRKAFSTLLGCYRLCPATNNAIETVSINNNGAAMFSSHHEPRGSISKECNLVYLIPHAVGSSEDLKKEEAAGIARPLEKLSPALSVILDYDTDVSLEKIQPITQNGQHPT

Substance-P receptor = Substance-P receptor (Homo sapiens, UniProt P25103)
Chain of Substance-P receptor (P25103 whole entry): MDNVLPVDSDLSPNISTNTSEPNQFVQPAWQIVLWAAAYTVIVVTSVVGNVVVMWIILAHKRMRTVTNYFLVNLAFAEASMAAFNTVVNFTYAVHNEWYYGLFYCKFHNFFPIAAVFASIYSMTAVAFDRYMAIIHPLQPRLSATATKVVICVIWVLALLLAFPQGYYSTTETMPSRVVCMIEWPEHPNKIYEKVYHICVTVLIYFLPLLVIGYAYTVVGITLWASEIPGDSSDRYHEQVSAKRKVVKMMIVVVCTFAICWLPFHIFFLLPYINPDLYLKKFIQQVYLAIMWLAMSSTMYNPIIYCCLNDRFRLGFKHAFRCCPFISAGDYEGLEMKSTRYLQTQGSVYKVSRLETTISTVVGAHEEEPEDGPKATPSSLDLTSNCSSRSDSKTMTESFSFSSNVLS

[6] = target: 5-hydroxytryptamine receptor 6 (Homo sapiens, UniProt P50406)
Chain of 5-hydroxytryptamine receptor 6 (P50406 whole entry): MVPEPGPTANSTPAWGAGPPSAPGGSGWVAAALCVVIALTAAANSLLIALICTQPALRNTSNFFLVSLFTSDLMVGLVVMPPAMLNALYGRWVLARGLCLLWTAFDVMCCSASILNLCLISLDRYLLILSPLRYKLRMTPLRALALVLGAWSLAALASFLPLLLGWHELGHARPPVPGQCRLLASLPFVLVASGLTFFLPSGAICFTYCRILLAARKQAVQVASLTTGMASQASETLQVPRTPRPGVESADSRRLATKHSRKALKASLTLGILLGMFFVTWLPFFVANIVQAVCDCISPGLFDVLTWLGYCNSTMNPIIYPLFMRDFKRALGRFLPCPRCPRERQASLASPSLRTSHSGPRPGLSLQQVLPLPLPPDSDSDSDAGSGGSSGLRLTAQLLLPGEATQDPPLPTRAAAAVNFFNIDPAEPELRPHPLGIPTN

[7] = target: T4, Muscarinic acetylcholine receptor M4 (Homo sapiens, UniProt P08173)
T4 sequence (P08173 whole entry): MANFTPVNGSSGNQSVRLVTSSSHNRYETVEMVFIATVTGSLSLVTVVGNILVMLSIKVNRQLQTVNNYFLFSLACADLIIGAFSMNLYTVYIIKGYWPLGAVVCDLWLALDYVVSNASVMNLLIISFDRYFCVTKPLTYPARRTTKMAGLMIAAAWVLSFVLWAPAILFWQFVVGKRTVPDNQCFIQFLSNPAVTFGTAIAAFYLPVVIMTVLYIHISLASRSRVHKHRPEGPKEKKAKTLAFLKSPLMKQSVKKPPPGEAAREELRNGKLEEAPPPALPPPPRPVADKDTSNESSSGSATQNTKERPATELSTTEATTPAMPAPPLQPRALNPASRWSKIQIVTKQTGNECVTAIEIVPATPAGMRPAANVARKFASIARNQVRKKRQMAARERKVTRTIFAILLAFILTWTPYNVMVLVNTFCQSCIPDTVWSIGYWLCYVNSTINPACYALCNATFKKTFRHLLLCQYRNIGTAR

[8] = target: T5, Gastric inhibitory polypeptide receptor (Homo sapiens, UniProt P48546)
T5 sequence (P48546 whole entry): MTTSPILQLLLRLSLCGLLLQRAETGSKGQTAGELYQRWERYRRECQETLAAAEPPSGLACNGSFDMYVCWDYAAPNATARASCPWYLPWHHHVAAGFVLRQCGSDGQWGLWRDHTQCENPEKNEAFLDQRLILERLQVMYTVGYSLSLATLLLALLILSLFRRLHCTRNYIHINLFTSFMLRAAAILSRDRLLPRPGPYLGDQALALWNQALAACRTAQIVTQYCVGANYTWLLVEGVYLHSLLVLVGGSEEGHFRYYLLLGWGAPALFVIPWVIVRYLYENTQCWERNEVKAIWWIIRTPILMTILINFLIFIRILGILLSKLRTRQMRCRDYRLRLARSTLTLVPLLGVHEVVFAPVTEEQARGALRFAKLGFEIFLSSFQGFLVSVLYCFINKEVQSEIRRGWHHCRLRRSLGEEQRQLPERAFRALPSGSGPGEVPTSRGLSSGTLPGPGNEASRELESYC
Further: assay procedure not described here.

Chain of Beta-1 adrenergic receptor (P08588 whole entry): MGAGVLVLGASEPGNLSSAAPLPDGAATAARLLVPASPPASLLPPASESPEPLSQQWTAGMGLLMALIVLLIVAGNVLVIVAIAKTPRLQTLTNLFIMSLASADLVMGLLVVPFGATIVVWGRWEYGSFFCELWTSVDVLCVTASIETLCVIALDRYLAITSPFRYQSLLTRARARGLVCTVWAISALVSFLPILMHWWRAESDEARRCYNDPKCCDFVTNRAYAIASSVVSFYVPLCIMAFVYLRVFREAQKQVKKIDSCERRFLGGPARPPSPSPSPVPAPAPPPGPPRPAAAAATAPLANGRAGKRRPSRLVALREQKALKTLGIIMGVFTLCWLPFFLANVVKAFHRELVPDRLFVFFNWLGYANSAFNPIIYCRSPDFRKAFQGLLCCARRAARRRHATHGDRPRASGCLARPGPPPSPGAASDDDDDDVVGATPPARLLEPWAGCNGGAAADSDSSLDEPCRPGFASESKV

C[N+](C)(C)CCOP(=O)([O-])OC[C@H](O)CO
AC50 [1]: > 30 µM

CN(C)Cc1nnc2n1-c1ccc(Cl)cc1C(c1ccccc1)=NC2 [ADINAZOLAM]
AC50 [2]: > 100 µM

CN(C)C/C=C/C(=O)Nc1cc2c(Nc3ccc(F)c(Cl)c3)ncnc2cc1O[C@H]1CCOC1 [AFATINIB]
AC50 (Histamine H1 receptor): > 30 µM
AC50 [3]: > 30 µM
AC50 [4]: > 30 µM

O=C(/C=C/c1cccc(S(=O)(=O)Nc2ccccc2)c1)NO [BELINOSTAT]
AC50 (Cannabinoid receptor 1): > 10 µM
AC50 [5]: > 10 µM
AC50 (D(1A) dopamine receptor): > 30 µM
AC50 (Substance-P receptor): > 10 µM
AC50 [6]: 2.47 µM
AC50 [7]: > 10 µM

CC(C)(Oc1ccc(CCNC(=O)c2ccc(Cl)cc2)cc1)C(=O)O [BEZAFIBRATE]
AC50 [4]: > 30 µM

CC(O)(CS(=O)(=O)c1ccc(F)cc1)C(=O)Nc1ccc(C#N)c(C(F)(F)F)c1 (centres undefined) [BICALUTAMIDE]
AC50 (Cannabinoid receptor 1): > 10 µM
AC50 [5]: > 10 µM
AC50 (Substance-P receptor): > 10 µM
AC50 [8]: > 30 µM
AC50 [6]: > 10 µM

O=C(O)COCCN1CCN(C(c2ccccc2)c2ccc(Cl)cc2)CC1 (centres undefined) [CETIRIZINE]
AC50 (Substance-P receptor): > 10 µM
AC50 [8]: > 30 µM

NC[C@H]1CC[C@H](C(=O)Oc2ccc(CCC(=O)O)cc2)CC1 [CETRAXATE]
AC50 (D(1A) dopamine receptor): > 30 µM

C[C@@H]1C[C@H]2[C@@H]3C[C@H](F)C4=CC(=O)C=C[C@]4(C)[C@@]3(F)[C@@H](O)C[C@]2(C)[C@@]1(OC(=O)c1ccco1)C(=O)SCF [FLUTICASONE FUROATE]
AC50 (Cannabinoid receptor 1): > 10 µM
AC50 [5]: > 10 µM
AC50 [6]: > 10 µM
AC50 [7]: > 10 µM

CNCCc1ccc(OC(=O)C(C)C)c(OC(=O)C(C)C)c1 [IBOPAMINE]
AC50 [1]: > 30 µM
AC50 [3]: > 30 µM

CN(C)CCCN1c2ccccc2CCc2ccccc21 [IMIPRAMINE]
AC50 (Cannabinoid receptor 1): > 10 µM
AC50 [5]: 0.33 µM
AC50 (Substance-P receptor): > 10 µM
AC50 [8]: > 30 µM
AC50 [2]: > 100 µM
AC50 [6]: 0.313 µM
AC50 [7]: 1.07 µM

COC(=O)C1=C(C)NC(C)=C(C(=O)OCCN2CCN(C(c3ccccc3)c3ccccc3)CC2)C1c1cccc([N+](=O)[O-])c1 (centres undefined) [MANIDIPINE 6300]
AC50 [1]: > 30 µM

CN(Cc1cnc2nc(N)nc(N)c2n1)c1ccc(C(=O)N[C@@H](CCC(=O)O)C(=O)O)cc1 [METHOTREXATE]
AC50 [8]: > 30 µM

O=C(O)c1cccnc1Nc1cccc(C(F)(F)F)c1 [NIFLUMIC ACID]
AC50 [2]: > 100 µM

OC[C@H]1O[C@@H](n2cnc3c2NC=NC[C@H]3O)C[C@@H]1O [PENTOSTATIN]
AC50 (Histamine H1 receptor): > 30 µM
AC50 [3]: > 30 µM
AC50 [4]: > 30 µM

CC(C)c1cccc(C(C)C)c1O [PROPOFOL]
AC50 [4]: > 30 µM

CN[C@@H](C)[C@@H](O)c1ccccc1 [PSEUDOEPHEDRINE]
AC50 (Substance-P receptor): > 10 µM
AC50 [8]: > 30 µM

CCCN1CC(NS(=O)(=O)N(CC)CC)CC2Cc3c(O)cccc3CC21 (centres undefined) [QUINAGOLIDE]
AC50 [1]: > 30 µM

O=C1OC(OC(=O)c2cccnc2Nc2cccc(C(F)(F)F)c2)c2ccccc21 (centres undefined) [TALNIFLUMATE]
AC50 (Histamine H1 receptor): > 30 µM
AC50 [3]: > 30 µM

O=S1(=O)CCN(CN2CCS(=O)(=O)NC2)CN1 [TAUROLIDINE]
AC50 (D(1A) dopamine receptor): > 30 µM
AC50 (Histamine H1 receptor): > 30 µM
AC50 [3]: > 30 µM

COc1ccc2c(C(=S)N(C)CC(=O)O)cccc2c1C(F)(F)F [TOLRESTAT]
AC50 (D(1A) dopamine receptor): > 30 µM
